8 compounds from PubChem BioAssay (NCI) can be followed below.

SMILES strings stand for the structures.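 A five-concentration, 48-hour dose response in 96-well plates underlies each endpoint, interpolated linearly between surrounding concentrations. GI50: concentration for 50% inhibition of growth. At the TGI there is no net growth.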 Where a SMILES comes first, the peptide text is derived from it. The star is where a group is joined. Trt = c1ccc(C(c2ccccc2)(c2ccccc2)*)cc1; Cbz = O=C(OCc1ccccc1)*

Test systems include 786-0 renal; CCRF-CEM leukemia; DU-145 prostate; EKVX NSCLC; IGROV1 ovarian; NCI-H23 lung; NCI-H460 lung; OVCAR-3 ovarian; RPMI-8226 leukemia; SK-MEL-5 melanoma.
Holding throughout (assay): DTP human tumour cell line panel, 48 h

On to `C/C(=N\O)c1ccc2ccc3ccccc3c2c1`, for which the TGI with 786-0 renal, with CCRF-CEM leukemia, with DU-145 prostate, in the experiment with EKVX NSCLC, in the experiment on IGROV1 ovarian and with NCI-H23 lung was > 100 µM each time. Also, the TGI is > 100 µM in the experiment with NCI-H460 lung, 90.9 µM in the experiment with OVCAR-3 ovarian, > 100 µM with RPMI-8226 leukemia and 37 µM with SK-MEL-5 melanoma.
Take `O=C1CC2OCC=C3CN4CCC56c7ccccc7N1C5C2C3CC46O` (stereo not given): the TGI in the experiment on 786-0 renal, with CCRF-CEM leukemia, with DU-145 prostate, with EKVX NSCLC, in the experiment with IGROV1 ovarian and with NCI-H23 lung was > 100 µM throughout. The concentration for total growth inhibition (TGI) with NCI-H460 lung, in the experiment with OVCAR-3 ovarian, in the experiment on RPMI-8226 leukemia and in the experiment on SK-MEL-5 melanoma was > 100 µM in each case.
Consider `COC(=O)C(CO)NC(=O)C(CSC(c1ccccc1)(c1ccccc1)c1ccccc1)NC(=O)OCc1ccccc1` (stereo not given) (Cbz-Cys(Trt)-Ser-OMe; configuration not given here), for which the concentration for total growth inhibition (TGI) is 46.9 µM in the experiment on 786-0 renal; 7.63 µM in the experiment on CCRF-CEM leukemia; 43.4 µM in the experiment with DU-145 prostate; 41.1 µM in the experiment with EKVX NSCLC; 37.3 µM in the experiment with IGROV1 ovarian; 40.8 µM in the experiment on NCI-H23 lung. Also, the TGI was 33.6 µM with NCI-H460 lung, 28.6 µM in the experiment on OVCAR-3 ovarian, 5.55 µM with RPMI-8226 leukemia and 28.4 µM in the experiment with SK-MEL-5 melanoma.
`COc1cc(/C=C/C(=O)c2cccc(-n3cc(-c4cc(OC)c(OC)c(OC)c4)[nH]c3=O)c2)cc(OC)c1OC`: the GI50 in the experiment with 786-0 renal is 1.59 µM; in the experiment on CCRF-CEM leukemia it was 275 nM; with DU-145 prostate, 2980 nM; in the experiment on EKVX NSCLC it was 9.48 µM; in the experiment with IGROV1 ovarian, 1600 nM; with NCI-H23 lung, 2000 nM. Besides, the GI50 was 1730 nM in the experiment on NCI-H460 lung, 1480 nM with OVCAR-3 ovarian, 238 nM in the experiment on RPMI-8226 leukemia and 2760 nM in the experiment on SK-MEL-5 melanoma. Besides, the concentration for total growth inhibition (TGI) in the experiment with 786-0 renal was 3.14 µM; with CCRF-CEM leukemia, > 100 µM; in the experiment with DU-145 prostate, 13.6 µM; in the experiment on EKVX NSCLC, > 100 µM; in the experiment on IGROV1 ovarian it was 3.79 µM; with NCI-H23 lung, 4.68 µM. Further, the TGI in the experiment with NCI-H460 lung was 3.98 µM; in the experiment on OVCAR-3 ovarian, 4.32 µM; in the experiment on RPMI-8226 leukemia, 0.733 µM; with SK-MEL-5 melanoma, 9.57 µM.
For the compound `O=C1CC(c2c[nH]c3ccc(F)cc23)C(=O)N1` (stereo not given), the GI50 in the experiment with 786-0 renal is > 100 µM; with CCRF-CEM leukemia it was > 100000 nM; in the experiment on DU-145 prostate, > 100000 nM; with EKVX NSCLC, > 100 µM; in the experiment with IGROV1 ovarian, > 100000 nM; with NCI-H23 lung it was > 100000 nM. Further, the GI50 in the experiment with NCI-H460 lung, in the experiment with OVCAR-3 ovarian, with RPMI-8226 leukemia and with SK-MEL-5 melanoma was > 100000 nM throughout. Besides, the TGI in the experiment on 786-0 renal, with CCRF-CEM leukemia, with DU-145 prostate, in the experiment with EKVX NSCLC, with IGROV1 ovarian and with NCI-H23 lung was > 100 µM throughout. Besides, the TGI with NCI-H460 lung, in the experiment on OVCAR-3 ovarian, in the experiment on RPMI-8226 leukemia and in the experiment on SK-MEL-5 melanoma was > 100 µM throughout.
Consider `O=C1/C(=C/c2ccc(Cl)c(Cl)c2)CN(C(=O)C(Cl)Cl)C/C1=C\c1ccc(Cl)c(Cl)c1`, for which the GI50 was 0.151 µM with 786-0 renal; 37.2 nM with CCRF-CEM leukemia; 369 nM in the experiment with DU-145 prostate; 0.223 µM in the experiment on EKVX NSCLC; 103 nM with IGROV1 ovarian; 136 nM in the experiment on NCI-H23 lung. Besides, the concentration for 50% growth inhibition (GI50) is 261 nM in the experiment with NCI-H460 lung, 57.1 nM with OVCAR-3 ovarian, 28.5 nM in the experiment on RPMI-8226 leukemia and 196 nM in the experiment on SK-MEL-5 melanoma. Also, the concentration for total growth inhibition (TGI) is 0.306 µM in the experiment on 786-0 renal; > 100 µM in the experiment on CCRF-CEM leukemia; 1.41 µM with DU-145 prostate; 0.757 µM with EKVX NSCLC; 0.306 µM with IGROV1 ovarian; 0.567 µM in the experiment on NCI-H23 lung. Also, the TGI stood at 0.935 µM in the experiment with NCI-H460 lung, 0.237 µM with OVCAR-3 ovarian, 0.485 µM in the experiment with RPMI-8226 leukemia and 0.418 µM with SK-MEL-5 melanoma.
As to `COc1cc(/C=C2\C(=O)N(Cc3ccc(Cl)cc3)c3ccccc32)cc(OC)c1OC`, the GI50 was 3.37 µM in the experiment on 786-0 renal; 1410 nM in the experiment with CCRF-CEM leukemia; 2050 nM in the experiment with DU-145 prostate; 4.15 µM in the experiment with EKVX NSCLC; 2730 nM with IGROV1 ovarian; 2920 nM in the experiment with NCI-H23 lung. The GI50 in the experiment with NCI-H460 lung is 2820 nM; in the experiment on OVCAR-3 ovarian, 1570 nM; in the experiment on RPMI-8226 leukemia, 645 nM; with SK-MEL-5 melanoma, 3980 nM. Also, the TGI is 14.9 µM in the experiment on 786-0 renal; 4.82 µM in the experiment on CCRF-CEM leukemia; 5.04 µM with DU-145 prostate; 34.6 µM in the experiment on EKVX NSCLC; 10.3 µM with IGROV1 ovarian; 13.5 µM in the experiment with NCI-H23 lung. The TGI came out at 8.38 µM in the experiment on NCI-H460 lung, 3.31 µM in the experiment with OVCAR-3 ovarian, 2.39 µM with RPMI-8226 leukemia and 11.9 µM with SK-MEL-5 melanoma.
Regarding `CN(C)c1ccc(/C=C\c2ccnc3ccccc23)cc1`, the GI50 in the experiment with 786-0 renal was 6.03 µM; with CCRF-CEM leukemia, 5130 nM; with DU-145 prostate it was 12100 nM; in the experiment with EKVX NSCLC, 2.63 µM; in the experiment on IGROV1 ovarian, 8850 nM; in the experiment on NCI-H23 lung it was 3630 nM. The GI50 in the experiment with NCI-H460 lung is 5200 nM; in the experiment on OVCAR-3 ovarian it was 7880 nM; with RPMI-8226 leukemia, 4020 nM; with SK-MEL-5 melanoma, 2960 nM. In addition, the TGI is > 39.2 µM in the experiment with 786-0 renal; > 100 µM with CCRF-CEM leukemia; > 88.5 µM in the experiment on DU-145 prostate; > 37.9 µM in the experiment on EKVX NSCLC; > 100 µM with IGROV1 ovarian; 63.4 µM in the experiment with NCI-H23 lung. Moreover, the TGI in the experiment on NCI-H460 lung was > 91.8 µM; with OVCAR-3 ovarian, > 60 µM; in the experiment with RPMI-8226 leukemia, > 85 µM; with SK-MEL-5 melanoma it was 9.69 µM.
